Measurements reported in publication PMC1890308, “Anti-calmodulins and Tricyclic Adjuvants in Pain Therapy Block the TRPV1 Channel” (PLoS ONE, 2007).
“And” between values parts separate entries of the source, which are not always exact repeats. Identical values can stand only once. “Also recorded” adds a separate entry of the source. Like-named read-outs stand apart in the source and are kept apart here. Ends that are not written are not given here.

Key:
TRPV1 = TRPV1 (Rattus norvegicus, UniProt O35433); experiment: capsaicin-induced 45Ca2+-uptake in primary rat embryonic DRG cultures; format: cell-based; parameters: sensory neurons, expressing TRPV1 endogenously; endogenous in cells; host or cells: primary cultures of embryonic rat dorsal root ganglia (E14, E16); details: rat embryonic DRG cultures
Protocol: Primary cultures were prepared from embryonic (E14) rat DRGs. Along with calmidazolium other polycyclic compounds were included in the vanilloid-induced ^45Ca^2+-transport assays.
Primary DRG cultures were prepared from E16 embryonic rats as described previously then plated in 15 cm Petri dishes for 4 h to remove the most adherent fibroblasts. For Ca^2+-uptake studies primary afferents neurons cultured in 96 well plates (3×10^3 cells/well), coated with poly-D lysine/collagen, which yielded both axons and dendrites bearing neurons due to neuronal growth factor supplementation in the culture medium [1]–[4]. The dendrites are large processes branching from the cell body that taper in diameter further from the cell body. The axons are a constant diameter and project over long distances from the cell body. Before the ion transport experiment, culture medium was removed and cells were washed three times. ^45Ca-uptake assays were carried out in “nominally zero Ca^2+” (i.e. 2×10^−5 M extracellular Ca^2+ ([Ca^2+]o) in 25 mM Tris-HCl buffered Hanks' balanced salt solution (pH 7.5), supplemented with 10 µM CaCl2 and 0.8 mM MgCl2medium (HCM) [1]–[4].
(§1) Vanilloid agonist inducible calcium transport was assayed in adherent cell lines ectopically expressing the C-terminally ε-tagged rat TRPV1 (3×10^4 cells/well) and primary cultures prepared from embryonic DRG, seeded in poly-D lysine/collagen coated 96 well plates. […] The previously established cell lines and standardized DRG cultures were extensively characterized for functional cell-based TRPV1 studies [1]–[4]. Immediately before the transport assay, cells were adapted to room temperature (20°C) for 5 min in HCM. ^45Ca^2+-uptake was performed for 10 min at 20°C in HCM using 0.1 µCi ^45Ca^2+ as radioactive tracer in a 100 µl final volume. To stop ^45Ca^2+-uptake, cells were rapidly changed back into 0.2 ml HCM, washed 4 additional times with 0.2 ml HCM, and then lysed in 80 µl/well RIPA buffer (50 mM Tris-HCl, pH 7.5, 150 mM NaCl, 1% Triton X-100, 0.5% deoxycholate, 0.1% SDS, 5 mM EDTA) for 30 min [1]–[4]. Aliquots of the solubilized cell extracts were mixed with 120 µl Microscint-40 and counted in a 96 well plate liquid scintillation counter (TopCount-NXT, Packard).

rat TRPV1 = biological target: T1, rat TRPV1 (Rattus norvegicus, UniProt O35433); experiment: capsaicin-induced 45Ca2+-uptake in TRPV1-NIH3T3 cells; format: cell-based; details: for IC50 / antagonist activity on capsaicin-induced Ca2+-uptake (in words): 2 µM capsaicin; for IC50: 10 min, 2×10^−5 M extracellular Ca2+, room temperature; for effect on Ca2+-uptake at low concentrations in the presence of capsaicin: 2 mM capsaicin (so in the source); for kinetics of Ca2+-transport inhibition: increasing concentrations of capsaicin
T1 construct: expressed in transfected cells
Protocol: Assays were carried out in 2×10^−5 M extracellular Ca^2+ in 96 well plate formats at room temperature (22°C) for 10 min with robotic liquid handling. […] We hypothesized that calmodulin antagonists and some registered drugs may exert their blocking effect with another mechanisms on TRPV1 and not necessarily on their conventional target.
TRPV1-NIH3T3 mouse fibroblast line, ectopically expressing the rat TRPV1 was established previously.
as §1

[1] = test system: intermediate Ca2+-activated K+ channels (IKCa); details: human erythrocytes; cited from earlier work
formalin-induced pain = test system: formalin-induced pain; parameters: method as in PMID 8883861; details: rat, intrathecal; cited from earlier work
heat-induced tail-flick = test system: heat-induced tail-flick; parameters: method as in PMID 8883861; details: cited from earlier work
[2] = biological target: rat TRPV1 (vanilloid inducible Ca2+-channel/inflammatory pain receptor 1), C-terminally ε-tagged, in TRPV1-NIH3T3 cells (rat) (UniProt O35433)
[3] = biological target: rat TRPV1 (vanilloid inducible Ca2+-channel/inflammatory pain receptor 1), C-terminally ε-tagged, in TRPV1-NIH3T3 cells (rat) (UniProt O35433); remark: listed apart in the source
[4] = read-out: IC50, inhibition of capsaicin-induced 45Ca2+-uptake

Chain of TRPV1 (O35433 whole entry): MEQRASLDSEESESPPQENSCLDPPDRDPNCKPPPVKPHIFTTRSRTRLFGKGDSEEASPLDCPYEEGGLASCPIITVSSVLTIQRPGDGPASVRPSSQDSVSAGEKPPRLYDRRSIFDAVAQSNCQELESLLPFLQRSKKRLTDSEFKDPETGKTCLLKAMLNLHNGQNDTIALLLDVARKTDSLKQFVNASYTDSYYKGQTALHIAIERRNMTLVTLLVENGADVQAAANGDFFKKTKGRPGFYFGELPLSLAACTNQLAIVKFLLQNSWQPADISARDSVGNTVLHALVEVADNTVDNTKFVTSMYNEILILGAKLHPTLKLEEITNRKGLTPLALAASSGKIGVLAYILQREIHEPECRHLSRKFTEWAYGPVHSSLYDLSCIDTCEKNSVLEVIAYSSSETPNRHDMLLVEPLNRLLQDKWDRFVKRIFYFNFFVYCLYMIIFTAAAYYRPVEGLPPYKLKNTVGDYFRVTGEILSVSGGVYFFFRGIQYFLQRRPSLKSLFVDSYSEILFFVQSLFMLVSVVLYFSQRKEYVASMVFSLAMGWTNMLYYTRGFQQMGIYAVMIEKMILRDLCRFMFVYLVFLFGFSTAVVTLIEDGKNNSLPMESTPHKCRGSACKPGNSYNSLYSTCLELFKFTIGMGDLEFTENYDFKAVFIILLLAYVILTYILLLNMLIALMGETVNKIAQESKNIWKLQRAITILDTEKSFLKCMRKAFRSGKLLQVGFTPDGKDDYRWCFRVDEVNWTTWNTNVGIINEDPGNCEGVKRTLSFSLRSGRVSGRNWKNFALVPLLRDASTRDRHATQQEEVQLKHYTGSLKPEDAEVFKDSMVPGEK
T1 sequence (O35433 whole entry): as above
Chain of rat TRPV1 (vanilloid inducible Ca2+-channel/inflammatory pain receptor 1), C-terminally ε-tagged, in TRPV1-NIH3T3 cells (rat) (O35433 whole entry): as above

Compound: O=C1CSC(c2ccccc2Cl)c2cc(Cl)ccc2N1 (stereo not drawn) [CGP-37157, 7-Chloro - 5 - (2 - chlorophenyl) - 1,5 - dihydro - 4,1 – benzothiazepin - 2(3H) - one]
- blocking activity on capsaicin-induced Ca2+-uptake (in words) (TRPV1): partially active
- blocking activity on capsaicin-induced Ca2+-uptake (in words) (TRPV1; listed as CGP 37157): partial blocking activity

Compound: Fc1cc(F)cc(C[n+]2ccn(CC(OCc3ccc(Cl)cc3Cl)c3ccc(Cl)cc3Cl)c2)c1 (stereo not drawn) [M1, Miconazole 1]
- IC50 (rat TRPV1; [4]): 8 µM

Compound: Clc1ccc(COC(Cn2cc[n+](CC3CCCCC3)c2)c2ccc(Cl)cc2Cl)c(Cl)c1 (stereo not drawn) [M2, Miconazole 2]
- IC50 (rat TRPV1; [4]): 8 µM

Compound: N=C(N)NCCC[C@H](NC(=O)COCC(c1ccccc1)c1ccccc1)C(=O)O [SB 290157, N2-[(2,2-Diphenylethoxy)acetyl]-L-arginine]
- blocking activity on capsaicin-induced Ca2+-uptake (in words) (TRPV1): partial blocking activity

Compound: NCCCCCCNS(=O)(=O)c1cccc2c(Cl)cccc12 [W-7, N- 6 – aminohexyl – 5 – chloro - 1 naphtalenesulfonamide]
- antagonist activity on capsaicin-induced Ca2+-uptake (in words) (rat TRPV1): partial or weak inhibitors
- IC50 (rat TRPV1; [4]): ~200 µM
- effect on Ca2+-uptake at low concentrations in the presence of capsaicin (rat TRPV1): increased Ca^2+-uptake
- activity on IKCa channels (in words) [1]: inactive
- analgesia in both phases of formalin tests (formalin-induced pain): analgesic
- effect on heat-induced tail-flick latency (heat-induced tail-flick): inhibit

Compound: NCCCCNS(=O)(=O)c1ccc2c(Cl)cccc2c1 [W-13, N - (4 - Aminobutyl) – 5 - chloro-2-naphthalenesulfonamide]
- antagonist activity on capsaicin-induced Ca2+-uptake (in words) (rat TRPV1): partial or weak inhibitors
- IC50 (rat TRPV1; [4]): > 300 µM
- effect on Ca2+-uptake at low concentrations in the presence of capsaicin (rat TRPV1): increased Ca^2+-uptake

Compound: CN(C)CCC=C1c2ccccc2CCc2ccccc21 [amitriptyline]
- IC50 (rat TRPV1; [4]): ~60 µM and 60 µM

Compound: COc1cc(CNC(=O)CCCC/C=C/C(C)C)ccc1O [capsaicin]
- ED100 for capsaicin-induction (rat TRPV1; pH 7.5): ~1 µM

Compound: Oc1cc2c(cc1O)CN(C(=S)NCCc1ccc(Cl)cc1)CCC2 [capsazepine]
- kinetics of Ca2+-transport inhibition (rat TRPV1): shifted the capsaicin dose-response curves right

Compound: NC(=O)N1c2ccccc2C=Cc2ccccc21 [carbamazepine]
- antagonist activity on capsaicin-induced Ca2+-uptake (in words) (rat TRPV1): inactive
- antagonist activity on capsaicin-induced Ca2+-uptake (in words) (rat TRPV1; listed as Carbamazepine): completely inactive

Compound: CN(C)CCCN1c2ccccc2Sc2ccc(Cl)cc21 [chlorpromazine]
- antagonist activity on capsaicin-induced Ca2+-uptake (in words) (rat TRPV1): full antagonists
- IC50 (rat TRPV1; [4]): 70 µM
- kinetics of Ca2+-transport inhibition (rat TRPV1): non-competitive inhibition kinetics

Compound: Fc1ccc(C(c2ccc(F)cc2)N2CCN(C/C=C/c3ccccc3)CC2)cc1 [flunarizine]
- blocking activity on capsaicin-induced Ca2+-uptake (in words) (TRPV1): partially active; also recorded: partial blocking activity

Compound: OCCN1CCN(CCCN2c3ccccc3Sc3ccc(C(F)(F)F)cc32)CC1 [fluphenazine]
- antagonist activity on capsaicin-induced Ca2+-uptake (in words) (rat TRPV1): partial or weak inhibitors
- IC50 (rat TRPV1; [4]): ~250 µM
- effect on Ca2+-uptake at low concentrations in the presence of capsaicin (rat TRPV1): increased Ca^2+-uptake

Compound: NCC1(CC(=O)O)CCCCC1 [gabapentine]
- antagonist activity on capsaicin-induced Ca2+-uptake (in words) (rat TRPV1): partial inhibition

Compound: CN1CCN(CCCN2c3ccccc3Sc3ccc(C(F)(F)F)cc32)CC1 [trifluoperazine]
- antagonist activity on capsaicin-induced Ca2+-uptake (in words) (rat TRPV1): full antagonists
- IC50 (rat TRPV1; [4]): 9 µM and < 10 µM
- activity on IKCa channels (in words) [1]: inactive

Compound: APETERAAVAIQAQFRKFQKKKAGS [camstatin]
- IC50 (rat TRPV1; IC50, inhibition of capsaicin-induced 45Ca2+-uptake): 11 µM and 20 µM

Compound: Camstatin (peptide)
- inhibition of capsaicin (2 µM)-induced 45Ca2+-uptake in intact TRPV1-NIH3T3 cells, 10 min, camstatin co-incubated in the uptake medium [2]: 11 µM
- inhibition of capsaicin-induced Ca2+-uptake in TRPV1-NIH3T3 cells [3]: 20 µM
